Experimental data published in US8436002B2, “AKT inhibitors” (Eli Lilly and Company, priority 2009, dated 2013).
“And” between values parts separate entries of the source, which are not always exact repeats. Identical values can stand only once.

Key:
AKT = AKT In Vivo Target Inhibition (IV), U87MG tumors in athymic rats; conditions: Rattus norvegicus, U-87 MG, IV dose 20 mpk, 4 hr post IV dose, n = 2, read-out: p(S9)GSK 3β - % inhibition
Protocol: Exponentially growing U87MG cells derived from a human glioblastoma are implanted subcutaneously in the rear flank of athymic rats. When the tumors reach the size of 200-250 mm^3, compounds are administered to the animals by a single IV injection in a dose-response study or in a time-course study. At the end of each treatment, animals are asphyxiated with CO2. Tumors are harvested by surgical excision, quickly frozen in liquid nitrogen and stored at −80° C. until analysis. Sera are prepared from blood harvested from the heart by cardiac puncture and stored at −80° C. until analysis.
The AKT inhibitor is extracted from serum with acetonitrite/methanol and analyzed alongside an internal standard by LC/MS/MS. […]
Tumors are homogenized in 2 volumes of a lysis buffer containing 25 mM Tris (pH 7.5), Roche complete protease inhibitors, and 1 mM vanadate with Powergen 125 homogenizer, then sequentially passed through an 18 gauge needle and a 23 gauge needle. […] Protein concentrations in the cytoplasmic extracts are determined with a BCA kit. Phospho-GSK3b (pGSK3b) in the soluble extracts is analyzed with the ELISA Kit. For each study, percent inhibitions are calculated relative to the vehicle control group and ANOVA analysis is performed using the JMP software package for the determination of statistical significance.

RKO = assay: Cell proliferation combination study (CellTiter-Glo); type: cell-based; conditions: with Irinotecan
Protocol: (§1) The proliferation assay uses the CellTiter-Glo Luminescent Cell Viability Assay System (commercially available from Promega) to determine the cell number of viable cells in culture based on quantitation of the ATP present, which signals the presence of metabolically active cells.
(§2) The cells are plated in 96-well plate at 2000 cells/well in volume of 50 μL medium (DMEM, 10% FBS, 25 mM HEPES, 1.0 mM Sodium Pyruvate, and 0.1 mM Non Essential Amino Acids) except column 1 with medium only as blank control. The plates are incubated overnight at 37° C. and 5% CO2. On the next day, compound stocks are prepared at 40 mM in DMSO (500×) and serially diluted in DMSO in a 96-well round bottom polypropylene plate. Compounds are assayed at 10 concentrations in duplicate, 4 compounds per plate.
(§3) 4 μL of the serial DMSO dilutions are transferred to a 96 deep-well plate and 1 mL complete culture medium is added to create 2× stock for dosing. 50 μL of each 2× dosing stock is gently transferred to the corresponding well of the cell plate resulting in a 0.2% DMSO concentration and a 100 μL final volume. […] medium are added to the Control columns (Column 12) and background columns (Column 1). Cells are incubated with compound for at 37° C., 5% CO2 for 72 hr.
(§4) After incubation, 100 μL of the pre-prepared CellTiter-Glo reagent (Promega, Cat: G7571) is added in each well and then the cells are homogenized by mixing on an orbital shaker for 2 min and incubated at RT for 10 minutes to allow luminescent signal stabilization Luminescent raw data is recorded on Wallac Victor V plate reader and the IC50 value for each compound is generated using percent inhibition data. A four-parameter logistic curve is fit to each dose response.
(§5) Combination studies use the fixed ratio method, where the other therapeutic agent and the compound of the present invention are present in fixed ratios of concentrations corresponding to the IC50 equivalents of single agents. The read out for the combination studies is cell proliferation in respective cell lines using Cell Titer Glo reagents. Controls are processed similarly but without the compounds. Analysis of the data is done according to the method described in Zhao et. Al. (Clinical Cancer Research 10, 7994-8004, Dec. 1, 2004) utilizing an internally developed web based tool. A combination index is calculated for each cell proliferation inhibition activity level according to the equation below. Combination Index at activity level x=[Concentration of other therapeutic agent in the combination at the activity level x/ICx of the other therapeutic agent]+[Concentration of the compound of the present invention in the combination at the activity level x/ICx of the compound of the present invention]

H1650 = assay: as above; type: cell-based
Protocol: as §1, §2, §3, §4, §5

NCIH460 = assay: as above; type: cell-based
Protocol: as §1, §2, §3, §4, §5

AsPC1 = assay: as above; type: cell-based
Protocol: as §1, §2, §3, §4, §5

A2780 = assay: as above; type: cell-based
Protocol: as §1, §2, §3, §4, §5

HCC827 = assay: as above; type: cell-based
Protocol: as §1, §2, §3, §4, §5

Calu6 = assay: as above; type: cell-based
Protocol: as §1, §2, §3, §4, §5

MDA-MB-231 = assay: as above; type: cell-based
Protocol: as §1, §2, §3, §4, §5

SK0V3 = assay: as above; type: cell-based
Protocol: as §1, §2, §3, §4, §5

H1155 = assay: as above; type: cell-based; conditions: with Gemcitabine
Protocol: as §1, §2, §3, §4, §5

MCF-7 = assay: as above; type: cell-based
Protocol: as §1, §2, §3, §4, §5

NCI-H1975 = assay: as above; type: cell-based
Protocol: as §1, §2, §3, §4, §5

BxPC3 = assay: as above; type: cell-based
Protocol: as §1, §2, §3, §4, §5

**Q.** Which inhibition at 20 mg/kg (AKT) does the source give for `C[C@@H]1CC(=O)Nc2ncnc(N3CCC(c4nc(C(F)(F)F)cn4CCN4CCCC4)CC3)c21` [Example 78, (R)-5-Methyl-4-(4-(1-(2-(pyrrolidin-1-yl)ethyl)-4-(trifluoromethyl)-1H-imidazol-2-yl)piperidin-1-yl)-5,6-dihydropyrido[2,3-d]pyrimidin-7(8H)-one] here?
**A.** Its inhibition at 20 mg/kg is 48%.

**Q.** Which “Combination Index at 50% Inhibition” value (RKO) does the source give for `C[C@@H]1CC(=O)Nc2ncnc(N3CCC(c4nc(C(F)(F)F)cn4CCN4CCCC4)CC3)c21` (single isomer, unassigned) [Example 77] here?
**A.** The value was 0.83.

**Q.** And the “Combination Index at 50% Inhibition” value (H1650; with Erlotinib)?
**A.** The value was 0.04.

**Q.** What about the “Combination Index at 50% Inhibition” value (H1650; with Gemcitabine) of the same compound?
**A.** Its value is 0.43.

**Q.** And the “Combination Index at 50% Inhibition” value (H1650; with Rapamycin)?
**A.** Its value is 0.07.

**Q.** And the “Combination Index at 50% Inhibition” value (NCIH460; with Cisplatin)?
**A.** Its value is 0.76 and 0.91.

**Q.** What about the “Combination Index at 50% Inhibition” value (NCIH460; with Docetaxel) of the same compound?
**A.** The value was 0.82.

**Q.** And the “Combination Index at 50% Inhibition” value (NCIH460; with Erlotinib)?
**A.** The value was 0.64.

**Q.** What about the “Combination Index at 50% Inhibition” value (NCIH460; with Gemcitabine) of the same compound?
**A.** The value was 0.88.

**Q.** What about the “Combination Index at 50% Inhibition” value (AsPC1; with Erlotinib) of the same compound?
**A.** Its value is 0.23.

**Q.** And the “Combination Index at 50% Inhibition” value (AsPC1; with Gemcitabine)?
**A.** Its value is 0.23.

**Q.** What about the “Combination Index at 50% Inhibition” value (AsPC1; with Rapamycin) of the same compound?
**A.** The value was 0.22.

**Q.** What about the “Combination Index at 50% Inhibition” value (A2780; with Cisplatin) of the same compound?
**A.** The value was 0.93.

**Q.** What about the “Combination Index at 50% Inhibition” value (A2780; with Doxorubicin) of the same compound?
**A.** The value was 0.85.

**Q.** What about the “Combination Index at 50% Inhibition” value (HCC827; with Erlotinib, HCC827) of the same compound?
**A.** Its value is 1.87.

**Q.** What about the “Combination Index at 50% Inhibition” value (HCC827; with Gemcitabine, HCC827) of the same compound?
**A.** The value was 0.17.

**Q.** And the “Combination Index at 50% Inhibition” value (HCC827; with Rapamycin, HCC-827)?
**A.** The value was 1.13.

**Q.** And the “Combination Index at 50% Inhibition” value (Calu6; with Cisplatin)?
**A.** Its value is 0.86.

**Q.** What about the “Combination Index at 50% Inhibition” value (Calu6; with Docetaxel) of the same compound?
**A.** Its value is 0.65.

**Q.** And the “Combination Index at 50% Inhibition” value (Calu6; with Erlotinib)?
**A.** The value was 0.20.

**Q.** And the “Combination Index at 50% Inhibition” value (Calu6; with Gemcitabine)?
**A.** Its value is 1.16.

**Q.** And the “Combination Index at 50% Inhibition” value (Calu6; with Pemetrexed)?
**A.** The value was 0.93.

**Q.** What about the “Combination Index at 50% Inhibition” value (Calu6; with Tasisulam) of the same compound?
**A.** The value was 1.16.

**Q.** What about the “Combination Index at 50% Inhibition” value (MDA-MB-231; with Erlotinib) of the same compound?
**A.** Its value is 0.05.

**Q.** What about the “Combination Index at 50% Inhibition” value (MDA-MB-231; with Gemcitabine) of the same compound?
**A.** The value was 0.39.

**Q.** And the “Combination Index at 50% Inhibition” value (MDA-MB-231; with Paclitaxel)?
**A.** The value was 1.13.

**Q.** And the “Combination Index at 50% Inhibition” value (MDA-MB-231; with Rapamycin)?
**A.** The value was 0.01.

**Q.** And the “Combination Index at 50% Inhibition” value (SK0V3; with Cisplatin)?
**A.** Its value is 1.00.

**Q.** What about the “Combination Index at 50% Inhibition” value (SK0V3; with Doxorubicin) of the same compound?
**A.** Its value is 1.12.

**Q.** What about the “Combination Index at 50% Inhibition” value (H1155) of the same compound?
**A.** Its value is 0.43.

**Q.** And the “Combination Index at 50% Inhibition” value (MCF-7; with Erlotinib)?
**A.** The value was 0.58.

**Q.** And the “Combination Index at 50% Inhibition” value (MCF-7; with Gemcitabine)?
**A.** The value was 0.10.

**Q.** And the “Combination Index at 50% Inhibition” value (MCF-7; with Paclitaxel)?
**A.** Its value is 0.60.

**Q.** What about the “Combination Index at 50% Inhibition” value (MCF-7; with Rapamycin) of the same compound?
**A.** The value was 0.46.

**Q.** What about the “Combination Index at 50% Inhibition” value (MCF-7; with Tamoxifen) of the same compound?
**A.** Its value is 0.74.

**Q.** What about the “Combination Index at 50% Inhibition” value (NCI-H1975; with Cisplatin) of the same compound?
**A.** The value was 0.77.

**Q.** What about the “Combination Index at 50% Inhibition” value (NCI-H1975; with Docetaxel) of the same compound?
**A.** The value was 1.13.

**Q.** And the “Combination Index at 50% Inhibition” value (NCI-H1975; with Erlotinib)?
**A.** Its value is 0.47.

**Q.** What about the “Combination Index at 50% Inhibition” value (NCI-H1975; with Gemcitabine) of the same compound?
**A.** The value was 0.55.

**Q.** What about the “Combination Index at 50% Inhibition” value (NCI-H1975; with Pemetrexed) of the same compound?
**A.** Its value is 1.73.

**Q.** What about the “Combination Index at 50% Inhibition” value (BxPC3; with Erlotinib) of the same compound?
**A.** The value was 0.36.

**Q.** And the “Combination Index at 50% Inhibition” value (BxPC3; with Gemcitabine)?
**A.** Its value is 1.13.

**Q.** And the “Combination Index at 50% Inhibition” value (BxPC3; with Rapamycin)?
**A.** The value was 0.15.
